Measured values from patent publication US20120129822A1, “COMPOSITION CONTAINING DIOSGENIN AND USE THEREOF TO IMPROVE AT LEAST ONE OF COGNITIVE DEFICITS ASSOCIATED WITH MENOPAUSAL SYNDROME” (TL & GM Chemical Company, priority 2010, published 2012).
“Also recorded” adds a separate entry of the source.

Tests used:
OVX rats without anxiety = test: Learned helplessness test (day-2 active avoidance test, shuttle box), OVX rats without anxiety; assay type: in vivo, female Wistar rats; conditions: for Avoidance response (number) / Escape response (number) / Failure response (number): 23 days, 16 trials, mean±SEM
Method: (§1) Three daily dosages of diosgenin, i.e., 10, 50, or 100 mg/kg, were administered to the experimental animals in the following experiments. A proper amount of diosgenin (Sigma, USA, required for formulating a respective one of the three daily dosages) was mixed with 1 g of toast or raw dough (prepared by mixing flour and water in a ratio of 2:1 (wt/wt)), thereby forming a diosgenin-containing pellet. The experimental animals were orally administered with the diosgenin-containing pellets, starting about 4 weeks after ovariectomy.
(§2) A shuttle box used in Example 1 (AccuScan, USA) is composed of two equal compartments. Each of the compartments has a grid floor made of stainless steel bars. The compartments are separated by a wall having a central door. Specifically, the central door can be closed to separate the two compartments, or can be opened to allow the experimental animals to move freely between the two compartments therethrough. A conditioned stimulus (CS, a stimulus consisting of a tone (75 db) and a light (250 lux) and lasting 3 seconds) and an unconditioned stimulus (UCS, an electric foot shock (0.5 mA) lasting a maximum of 10 seconds) were administered to the experimental animals from the shuttle box under control of a computer. The shuttle box was thoroughly cleaned using 20% ethanol and was subsequently thoroughly dried before each of the experimental animals was tested.
(§3) The OVX rats with and without anxiety, which were identified in the preceding section A, were respectively randomly subdivided into 4 groups including a control group and three experimental groups (respectively designated as diosgenin groups 1-3). The diosgenin-containing pellets (made using diosgenin and toast), which were prepared according to the method as described in the section entitled “2. Diosgenin-containing pellets” of the Experimental Materials, respectively comprised the three daily dosages of diosgenin (i.e., 10, 50, and 100 mg/kg), and were respectively administered to the OVX rats in diosgenin groups 1-3 daily. In other words, the daily dosage of diosgenin administered to the OVX rats in diosgenin group 1 was 10 mg/kg, the daily dosage of diosgenin administered to the OVX rats in diosgenin group 2 was 50 mg/kg, and the daily dosage of diosgenin administered to the OVX rats in diosgenin group 3 was 100 mg/kg. The toast without diosgenin was administered daily to the OVX rats in the control group. After 23 days of administration, the OVX rats in each group were subjected to the following learned helplessness test so as to investigate the effect of diosgenin on the learning ability of the OVX rats with and without anxiety under stress.
(§4) The learned helplessness test in this example was conducted substantially according to the methods as described in W. F. Wang et al. (2007), Chin. J. Physiol., 50:63-68 and Y. T. Lee et al. (2008), Neuroreport, 19:1243-1247, except for minor modifications. The learned helplessness test in this example is generally described as follows.
(§5) The respective OVX rat was placed in one of the two compartments of the shuttle box, and was allowed to explore the two compartments through the central door, which was opened, for 1 minute. Afterward, the central door was closed. The respective OVX rat was subjected to 40 trials of inescapable CS-UCS pairing. Specifically, each of the 40 trials of inescapable CS-UCS pairing consisted of a CS and a subsequent UCS, and a mean interval between the two successive trials of inescapable CS-UCS pairing was 60 seconds (the interval between the two successive trials of inescapable CS-UCS pairing ranged from 50 to 70 seconds).
(§6) The respective OVX rat was placed in one of the two compartments of the shuttle box, and was allowed to explore the two compartments through the central door, which was opened, for 1 minute. Subsequently, the respective OVX rat was subjected to 16 trials of escapable CS-UCS pairing. […]

[1] = tested on: breast cancer-burdened mice; conditions: cited from earlier work
OVX mice = conditions: cited from earlier work
OVX rats = test: Object recognition test in open box; assay type: in vivo, female Wistar rats
Method: Three daily dosages of diosgenin, i.e., 10, 50, or 100 mg/kg, were administered to the experimental animals in the following experiments. A proper amount of diosgenin (Sigma, USA, required for formulating a respective one of the three daily dosages) was mixed with 1 g of toast or raw dough (prepared by mixing flour and water in a ratio of 2:1 (wt/wt)), thereby forming a diosgenin-containing pellet. The experimental animals were orally administered with the diosgenin-containing pellets, starting about 4 weeks after ovariectomy. The open box is made of black polyvinyl plastics. Three objects, which are respectively designated as A1, A2, and A3, are identical in terms of size, color, shape, and material, and have no specific scents. Each of the objects A1, A2, A3 was placed on the bottom of the open box and was spaced apart from a respective one of three corners C1, C2, C3 of the open box by 21 cm (see FIG. 2(A)). The object A3 was later replaced with an object B different from the object A3 in terms of size, color, shape, and material, and having no specific scents (see FIG. 2(B)). Prior to an experiment, each of the objects A1, A2, A3, B was unfamiliar to the experimental animals. The open box and the objects A1, A2, A3, B were thoroughly cleaned using 20% ethanol, and were subsequently thoroughly dried before each of the experimental animals was tested. After the female Wistar rats were raised in the animal room for 4 weeks, the same were subjected to ovariectomy according to the method as described in the section, entitled “1. Ovariectomy”, of the General Experimental Procedure. On the 29th day after the surgery, the OVX rats were randomly divided into four groups including a control group (n=20) and three experimental groups (respectively designated as diosgenin group 1 (n=20), diosgenin group 2 (n=12), and diosgenin group 3 (n=19)). The diosgenin-containing pellets (made using diosgenin and raw dough), which were prepared according to the method as described in the section entitled “2. […]

OVX rats with anxiety = test: Learned helplessness test (day-2 active avoidance test, shuttle box), OVX rats with anxiety; assay type: in vivo, female Wistar rats; conditions: 23 days; for Avoidance response (number) / Failure response (number) / Escape response (number): 16 trials, mean±SEM
Method: as §1, §2, §3, §4, §5, §6

[2] = tested on: OVX rats having clinical signs of osteoporosis; conditions: sustained delivery; cited from earlier work
[3] = diosgenin group 1, 10 mg/kg daily oral, n=7
[4] = diosgenin group 2, 50 mg/kg daily oral, n=6
[5] = diosgenin group 3, 100 mg/kg daily oral, n=6
[6] = diosgenin group 1, 10 mg/kg daily oral, n=12
[7] = diosgenin group 2, 50 mg/kg daily oral, n=11
[8] = diosgenin group 3, 100 mg/kg daily oral, n=11

## C[C@@H]1CC[C@@]2(OC1)O[C@H]1C[C@H]3[C@@H]4CC=C5C[C@@H](O)CC[C@]5(C)[C@H]4CC[C@]3(C)[C@H]1[C@@H]2C [diosgenin]
OVX rats without anxiety; [3]
  Avoidance response (number): 1.3 ± 0.6 number
  Escape response (number): 11.7 ± 1.4 number
  Failure response (number): 3.0 ± 1.6 number
OVX rats without anxiety; [4]
  Avoidance response (number): 1.2 ± 0.4 number
  Escape response (number): 13.8 ± 0.5 number
  Failure response (number): 0.7 ± 0.3 number
OVX rats without anxiety; [5]
  Avoidance response (number): 2.5 ± 0.8 number
  Escape response (number): 12.5 ± 1.1 number
  Failure response (number): 0.8 ± 0.7 number
OVX rats without anxiety; diosgenin groups 1-3 (10, 50, 100 mg/kg daily oral)
  Number of avoidance response and number of escape response versus control group (result in words): not obviously different from those regarding the OVX rats in the control group
[1]
  Tumor growth: does not accelerate the tumor growth
OVX mice; animal model of menopause
  Epidermal thickness of OVX mice: capable of improving epidermal thickness
  Keratinocyte proliferation in aged skin: able to restore keratinocyte proliferation in aged skin
OVX mice
  Degree of fat accumulation: without altering the degree of fat accumulation
OVX rats; diosgenin group 2, 50 mg/kg daily oral, 26 days, FIG. 3
  Exploration time spent on object B in the third trial, comparison among groups (result in words): the longest
OVX rats; each of diosgenin groups 1-3 (10, 50, 100 mg/kg daily oral, 26 days), FIG. 3
  Exploration time spent on object B in the third trial versus object A3 in the second trial (result in words): longer than exploration time spent on object A3 in the second trial
OVX rats; oral diosgenin-containing pellets, 26 days
  Ability to memorize a familiar object and to recognize a difference between familiar and novel object (result in words): able to improve the ability to memorize a familiar object and the ability to recognize a difference between the familiar object and a novel object; also recorded: able to improve the ability to memorize a familiar object, and the ability to recognize a difference between the familiar object and a novel object
OVX rats with anxiety; [6]
  Avoidance response (number): 2.5 ± 0.9 number
  Failure response (number): 4.2 ± 1.3 number
OVX rats with anxiety; diosgenin group 1, 10 mg/kg daily oral, n=12, p<0.05 vs control
  Escape response (number): 9.3 ± 1.3 number
OVX rats with anxiety; [7]
  Avoidance response (number): 1.3 ± 0.5 number
  Escape response (number): 10.4 ± 1.4 number
  Failure response (number): 4.4 ± 1.4 number
OVX rats with anxiety; [8]
  Avoidance response (number): 1.4 ± 0.4 number
  Escape response (number): 13.2 ± 0.6 number
  Failure response (number): 1.4 ± 0.5 number
OVX rats with anxiety; oral diosgenin-containing pellets
  Learning ability of the OVX rats with anxiety (result in words): capable of significantly improving the learning ability of the OVX rats with anxiety
[2]
  Bone loss after ovariectomy: significantly reduced
  Side effects on other body organs: without inducing side effects on other body organs

## C[C@]12CC[C@H](O)CC1=CC[C@@H]1[C@@H]2CC[C@]2(C)C(=O)CC[C@@H]12 [DHEA, dehydroepiandrosterone]
[2]
  Bone loss after ovariectomy: significantly reduced
  Side effects on other body organs: without inducing side effects on other body organs

## estrogen
[2]
  Bone loss after ovariectomy: significantly reduced
  Side effects on other body organs: without inducing side effects on other body organs
